One experiment deals with MTAP-deleted cell line. The experiment can be described thus: viability assay for the MTAP-deleted cell line. The class given is cell-based.
Experiment [1] concerns HAP1 MTAP-intact cell line. The experiment can be described thus: SDMA in-cell western assay, HAP1 MTAP-intact.
For experiment [2], the system named is HAP1 MTAP-deleted cell line. In words: SDMA in-cell western assay, HAP1 MTAP-deleted. The conditions noted are these: for Hap1 MTAP intact/deleted ratio: IC50 ratio between HAP1 MTAP-intact and HAP1 MTAP-deleted cell line.
[3] abbreviates: Homo sapiens, HAP1, viability assay.
The mark [4] stands for this setting: Homo sapiens, HAP1, read-out: Hap1 MTAP intact IC50, SDMA in-cell western, HAP1 MTAP-intact cell line.
Setting [5] is: Homo sapiens, HAP1, read-out: Hap1 MTAP deleted IC50, SDMA in-cell western, HAP1 MTAP-deleted cell line.
Setting [6] is: Homo sapiens, HAP1, read-out: Hap1 MTAP deleted IC90, SDMA in-cell western, HAP1 MTAP-deleted cell line.
Where [7] appears, read: viability assay, read-out: Hap1 MTAP deleted viability IC50.
Where [8] appears, read: read-out: Hap1 MTAP deleted IC50, SDMA in-cell western assay, HAP1 MTAP-deleted cell line.
[9] abbreviates: Homo sapiens, HAP1, read-out: Hap1 MTAP intact IC50.
Setting [10] is: Homo sapiens, HAP1, read-out: Hap1 MTAP deleted IC90, SDMA in-cell western assay, HAP1 MTAP-deleted cell line.

The values that follow come from US20250163048A1 (Tango Therapeutics, Inc., priority 2022, published 2025).

The structures appear in SMILES notation. Where two headings read alike, the source gives them in different places.

`C[C@H]1CC[C@H](c2ccc3sc([C@@H]4CCN(C)C4)nc3c2)N(C(=O)C(=O)Nc2cncc3cn[nH]c23)C1` (single isomer, unassigned) [Compound 2]: the IC50 (in general, the midpoint of a concentration-inhibition curve) in the experiment with MTAP-deleted cell line (setting [3]) was < 0.1 µM; in experiment [1] (setting [4]), 0.005 to 0.05 µM; in experiment [2] (setting [5]), < 0.005 µM. Also, the IC90 (commonly the concentration needed for an effect of 90%) in experiment [2] (setting [6]) was < 0.075 µM. Also, the “Hap1 MTAP intact/deleted ratio” value in experiment [2] (SDMA in-cell western) is recorded as “C (“C” indicates an IC50 ratio of less than 15 fold)”.

Regarding `CN(C)c1cccc(C2CCCCN2C(=O)C(=O)Nc2cnc(N)c3cn[nH]c23)c1` (single isomer, unassigned) [Compound 283], the IC50 with MTAP-deleted cell line (setting [7]) was < 0.1 µM; in experiment [1] (read-out: Hap1 MTAP intact IC50, SDMA in-cell western assay, HAP1 MTAP-intact cell line) it was 0.005 to 0.05 µM; in experiment [2] (setting [8]), < 0.005 µM. The “Hap1 MTAP intact/deleted ratio” value in experiment [2] (SDMA in-cell western assay) is “A (“A” indicates an IC50 ratio greater than or equal to 30 fold)”. For the same compound, in experiment [2] (read-out: Hap1 MTAP deleted IC90, SDMA in-cell western assay, HAP1 MTAP-deleted cell line), the IC90 is < 0.075 µM.

Turning to `C[C@@H]1CC[C@@H](c2ccc3cnccc3c2)N(C(=O)C(=O)Nc2cnc(N)c3cn[nH]c23)C1` (racemic) [Compound 22, rac-N-(4-amino-1H-pyrazolo[4,3-c]pyridin-7-yl)-2-((2R,5S)-2-(isoquinolin-6-yl)-5-methylpiperidin-1-yl)-2-oxoacetamide], the values for the IC50 (with MTAP-deleted cell line (setting [3]); in experiment [1] (setting [4]); in experiment [2] (setting [5])) were < 0.1 µM, 0.005 to 0.05 µM and < 0.005 µM, respectively. In addition, the IC90 in experiment [2] (setting [6]) is < 0.075 µM. The “Hap1 MTAP intact/deleted ratio” value in experiment [2] (SDMA in-cell western) was “C (“C” indicates an IC50 ratio of less than 15 fold)”.

For the compound `C[C@H]1CC[C@H](c2ccc3sc([C@@H](C)CN4CCCC4)nc3c2)N(C(=O)C(=O)Nc2cncc3cn[nH]c23)C1` [Compound 86, 2-oxo-N-(1H-pyrazolo[4,3-c]pyridin-7-yl)-2-[(2R,5S)-5-methyl-2-[2-[(1S)-1-methyl-2-pyrrolidin-1-yl-ethyl]-1,3-benzothiazol-5-yl]-1-piperidyl]acetamide], the 50% inhibitory concentration (IC50) in the experiment on MTAP-deleted cell line (setting [3]) was < 0.1 µM; in experiment [1] (setting [4]), > 0.05 µM; in experiment [2] (setting [5]) it was < 0.005 µM. Further, the IC90 in experiment [2] (setting [6]) was < 0.075 µM. In addition, the “Hap1 MTAP intact/deleted ratio” value in experiment [2] (SDMA in-cell western) was “B (“B” indicates an IC50 ratio greater than or equal to 15 fold but lower than 30 fold)”.

Turning to `CO[C@@H]1C[C@@H](c2ccc(F)cc2)N(C(=O)C(=O)Nc2cnc(N)c3cn[nH]c23)C[C@@H]1C` (single isomer, unassigned) [Compound 7], the IC50 in the experiment on MTAP-deleted cell line (setting [3]) is < 0.1 µM; in experiment [1] (setting [4]) it was 0.005 to 0.05 µM; in experiment [2] (setting [5]), < 0.005 µM. The IC90 in experiment [2] (setting [6]) was < 0.075 µM. In experiment [2] (SDMA in-cell western), the “Hap1 MTAP intact/deleted ratio” value is “B (“B” indicates an IC50 ratio greater than or equal to 15 fold but lower than 30 fold)”.

With `CC1OCc2c(NC(=O)C(=O)N3C[C@@H](C)CC[C@@H]3c3ccc4scnc4c3)cnc(N)c21` (single isomer, unassigned) [Compound 287], the IC50 is < 0.1 µM in the experiment with MTAP-deleted cell line (setting [7]), > 0.05 µM in experiment [1] (setting [9]) and < 0.005 µM in experiment [2] (setting [8]). In experiment [2] (setting [10]), the IC90 was < 0.075 µM. In experiment [2] (SDMA in-cell western assay), the “Hap1 MTAP intact/deleted ratio” value is “B (“B” indicates an IC50 ratio greater than or equal to 15 fold but lower than 30 fold)”.

In the case of `C[C@H]1CC[C@H](c2ccc3scnc3c2)N(C(=O)C(=O)Nc2cncc3cn[nH]c23)C1` [Compound 26, 2-((2R,5S)-2-(benzo[d]thiazol-5-yl)-5-methylpiperidin-1-yl)-2-oxo-N-(1H-pyrazolo[4,3-c]pyridin-7-yl)acetamide], the values for the IC50 (with MTAP-deleted cell line (setting [3]); in experiment [1] (setting [9]); in experiment [2] (setting [5])) were 0.1 to 1 µM, > 0.05 µM and 0.005 to 0.05 µM, respectively. In experiment [2] (setting [6]), the IC90 was > 0.125 µM. In experiment [2] (SDMA in-cell western), the “Hap1 MTAP intact/deleted ratio” value is recorded as “A (“A” indicates an IC50 ratio greater than or equal to 30 fold)”.

Regarding `Nc1ncc(NC(=O)C(=O)N2CCCCC2c2cccc(N3CCCC3)c2)c2[nH]ncc12` (single isomer, unassigned) [Compound 213], the IC50 is 0.1 to 1 µM in the experiment with MTAP-deleted cell line (setting [3]); > 0.05 µM in experiment [1] (Homo sapiens, HAP1, read-out: Hap1 MTAP intact IC50, SDMA in-cell western assay, HAP1 MTAP-intact cell line); 0.005 to 0.05 µM in experiment [2] (Homo sapiens, HAP1, read-out: Hap1 MTAP deleted IC50, SDMA in-cell western assay, HAP1 MTAP-deleted cell line). In experiment [2] (setting [10]), the concentration for an effect of 90% (IC90) was > 0.125 µM. Moreover, the “Hap1 MTAP intact/deleted ratio” value in experiment [2] (SDMA in-cell western assay) was “A (“A” indicates an IC50 ratio greater than or equal to 30 fold)”.
